Broadly, the IC50 is the concentration that gives 50% inhibition.

The target in this assay is T1, p101/p110γ protein (PI3Kγ) (Homo sapiens, UniProt P48736).
T1 construct: HA; made in house; host or cells: Spodoptera frugiperda (Sf9) cells, baculovirus coinfection
The assay can be described thus: PI3Kγ In Vitro Kinase Assay. Type of assay: biochemical. The note with it: purified recombinant p101/p110γ with G protein β1/γ2 subunits; 20 μM ATP, 25 μM PIP2; 20 minutes at room temperature; radioactive PIP3 readout. The procedure:
Spodtera frugiperda cells, grown in ESF921 media, were coinfected with baculovirus expressing a glu-tagged […] and baculovirus expressing an HA-tagged p110γ, at a 3:1 ratio of p110 baculovirus to p110γ baculovirus. Sf9 cells were grown to 1×10^7 total cells/mL in 10L bioreactors and harvested 48-72 hours post infection. Samples of infected cells were then tested for expression of p101/p110γ PI3 kinase by immunoprecipitation and Western Blot analysis methods (see below).
To purify PI3Kγ, 4 volumes of room temperature hypotonic lysis buffer (1 mM MgCl2, 1 mM DTT, 5 mM EGTA, 1 mM Pefabloc, 0.5 μM aprotinin, […], 2 μM pepstatin, 5 μM E64, pH 8) per gram of cell paste, was poured onto frozen cell pellets with stirring, then lysed in a nitrogen “bomb” at 400 psi (599HC T316, Parr Instrument Co, Moline, Ill.). NaCl was added to 150 mM, and sodium cholate was added to 1% and mixed for another 45 minutes. The lysates were clarified by centrifugation for 25 minutes at 14,000 rpm. The lysates were then loaded over anti-glu-linked Protein-G Sepaharose beads (Covance Research Products, Richmond, Calif.) using 20 mL resin/50 g cell paste. The column was washed with 15 volumes of wash buffer (1 mM DTT, 0.2 mM EGTA, 1 mM Pefabloc, 0.5 μM aprotinin, 5 μM leupeptin, 2 μM pepstatin, 5 μM E64, 150 mM NaCl, 1% sodium cholate, pH 8). PI3Kγ was eluted with 6 column volumes of wash buffer that contain 100 μg/mL of a peptide that competes for binding of the glu tag. The column fractions with the eluted protein (determined by taking OD280 readings) were collected and dialyzed in 0.2 mM EGTA, 1 mM DTT, 1 mM Pefabloc, 5 μM leupeptin, 0.5% sodium cholate, 150 mM NaCl, and 50% glycerol, pH 8. The fractions were stored at −80° C. until further use.
Spodtera frugiperda cells were coinfected with baculovirus expressing a glu-tagged G protein β1 and baculovirus expressing a […] at a 1:1 ratio of glu-tagged G protein β1 baculovirus to G protein β2 baculovirus. Sf9 cells are grown in 10 L bioreactors and harvested 48-72 hours post infection. Samples of infected cells were tested for G protein β1/β2 expression by Western Blot analysis, as described below. Cell lysates were homogenized and loaded onto a column of glu-tagged beads as in Biological Example 1 and competed off the column with a glu peptide as described in Biological Example 1.
The inhibitory properties of the compounds in Table 1 were assayed in an in vitro PI3K assay. In a 96-well polypropylene plate, each well was spotted with 2 μL of 50 times the desired final concentration of compound in DMSO. Purified recombinant p101/p110γ protein (0.03 μg; ˜2.7 nM) and G protein β1/γ2 subunits (0.09 μg; −57.7 nM) for each reaction was combined in the assay buffer (30 mM HEPES, 100 mM NaCl, 1 mM EGTA, and 1 mM DTT). ATP and [γ-^32P-ATP] (0.09 μCi) were added to this mixture so that the final ATP concentration in the reaction was 20 μM. Lipid micelles were formed by sonicating phosphatidylinositol-4,5-diphosphate (PIP2), phosphatidylethanolamine (PE), and Na-cholate in the assay buffer for 10 minutes, adding MgCL2 and incubating on ice for 20 minutes, for final concentrations of 25 μM PIP2, 300 μM PE, 0.02% Na-cholate, and 10 mM MgCl2 in the reaction. The reactions were started by adding equal volumes lipid and enzyme mixture in a total volume of 50 μL, allowed to run for 20 minutes at room temperature, and stopped with 100 μL 75 mM H3PO4. The lipid product was transferred to a glass fiber filter plate and washed with 75 mM H3PO4 several times. The presence of radioactive lipid product (PIP3) was measured by adding Wallac Optiphase mix to each well and counting in a Wallac 1450 Trilux plate reader (PerkinElmer Life Sciences Inc., Boston, Mass. 02118). The IC50 for each compound tested is reported in μM in Table 1: […]

T1 sequence (P48736 whole entry, species assumed): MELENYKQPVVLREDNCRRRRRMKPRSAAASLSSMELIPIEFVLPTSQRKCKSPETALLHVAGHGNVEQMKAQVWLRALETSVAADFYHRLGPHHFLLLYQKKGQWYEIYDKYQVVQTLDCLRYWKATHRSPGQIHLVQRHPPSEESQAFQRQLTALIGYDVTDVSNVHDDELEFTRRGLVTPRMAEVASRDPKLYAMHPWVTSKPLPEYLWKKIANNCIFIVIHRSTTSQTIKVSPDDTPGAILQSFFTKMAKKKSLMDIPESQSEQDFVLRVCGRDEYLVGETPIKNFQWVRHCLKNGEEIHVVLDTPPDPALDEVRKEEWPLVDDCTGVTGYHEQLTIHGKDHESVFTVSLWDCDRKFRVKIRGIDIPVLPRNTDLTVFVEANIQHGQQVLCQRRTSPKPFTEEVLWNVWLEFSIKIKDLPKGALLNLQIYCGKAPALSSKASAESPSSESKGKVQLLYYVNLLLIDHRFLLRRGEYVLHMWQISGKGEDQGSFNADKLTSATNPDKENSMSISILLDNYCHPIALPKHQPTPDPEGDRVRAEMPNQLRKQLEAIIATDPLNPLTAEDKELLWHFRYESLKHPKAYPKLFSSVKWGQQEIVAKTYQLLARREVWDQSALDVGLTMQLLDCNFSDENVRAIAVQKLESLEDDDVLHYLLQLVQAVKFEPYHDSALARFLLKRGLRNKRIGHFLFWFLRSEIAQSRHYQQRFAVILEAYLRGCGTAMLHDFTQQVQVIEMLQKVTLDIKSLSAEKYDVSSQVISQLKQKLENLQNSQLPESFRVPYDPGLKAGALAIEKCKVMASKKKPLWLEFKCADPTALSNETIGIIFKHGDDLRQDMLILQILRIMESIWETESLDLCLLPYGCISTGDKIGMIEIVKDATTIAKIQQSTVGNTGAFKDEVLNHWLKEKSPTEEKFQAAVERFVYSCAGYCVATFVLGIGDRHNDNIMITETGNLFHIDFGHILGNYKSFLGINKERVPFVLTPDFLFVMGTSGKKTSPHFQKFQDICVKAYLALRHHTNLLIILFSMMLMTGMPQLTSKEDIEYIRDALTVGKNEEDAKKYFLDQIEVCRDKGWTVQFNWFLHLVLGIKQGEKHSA
T1 sequence (Q8WYR1 whole entry partner, species assumed): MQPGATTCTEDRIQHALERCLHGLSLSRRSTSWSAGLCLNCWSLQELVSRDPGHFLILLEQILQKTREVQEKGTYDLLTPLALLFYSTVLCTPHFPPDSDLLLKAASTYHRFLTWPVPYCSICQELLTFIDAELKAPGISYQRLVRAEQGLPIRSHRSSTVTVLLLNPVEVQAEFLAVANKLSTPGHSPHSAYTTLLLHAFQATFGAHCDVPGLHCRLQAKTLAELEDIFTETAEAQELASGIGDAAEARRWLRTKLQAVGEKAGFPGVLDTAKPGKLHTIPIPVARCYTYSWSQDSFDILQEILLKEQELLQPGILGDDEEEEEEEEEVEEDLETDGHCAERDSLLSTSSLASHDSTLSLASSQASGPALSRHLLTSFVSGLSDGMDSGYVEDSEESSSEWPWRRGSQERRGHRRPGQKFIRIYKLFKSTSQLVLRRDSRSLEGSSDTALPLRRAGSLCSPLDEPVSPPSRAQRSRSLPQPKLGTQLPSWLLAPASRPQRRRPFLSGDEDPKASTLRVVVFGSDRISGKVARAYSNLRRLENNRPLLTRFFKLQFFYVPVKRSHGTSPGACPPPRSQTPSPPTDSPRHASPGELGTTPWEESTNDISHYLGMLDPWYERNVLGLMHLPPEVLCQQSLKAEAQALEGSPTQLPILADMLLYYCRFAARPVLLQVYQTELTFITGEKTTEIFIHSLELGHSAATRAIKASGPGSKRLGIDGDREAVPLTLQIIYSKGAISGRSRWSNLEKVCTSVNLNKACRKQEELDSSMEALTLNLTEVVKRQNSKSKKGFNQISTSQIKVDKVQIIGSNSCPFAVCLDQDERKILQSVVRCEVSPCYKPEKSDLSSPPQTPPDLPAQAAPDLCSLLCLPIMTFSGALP

With `O=C1NC(=S)SC1=Cc1ccc2c(c1)N(C(=O)c1cccnc1)CCCO2` [Example 117, 5-[9-(Pyridine-3-carbonyl)-6,7,8,9-tetrahydro-5-oxa-9-aza-benzocyclohepten-2-ylmethylene]-2-thioxo-thiazolidin-4-one], the IC50 amounted to 1910 nM. For the compound `CC1CCCCC1C(=O)N1CCOc2ccc(C=C3SC(=S)NC3=O)cc21` (centres unmarked) [Example 91, 5-[4-(2-Methyl-cyclohexanecarbonyl)-3,4-dihydro-2H-benzo[1,4]oxazin-6-ethylene]-2-thioxo-thiazolidin-4-one], the IC50 came to 90 nM. As to `O=C1NC(=S)SC1=Cc1ccc2c(c1)N(C(=O)NCCc1cccs1)CCO2` [Example 64, 6-(4-Oxo-2-thioxo-thiazolidin-5-ylidenemethyl)-2,3-!dihydro-1,4-benzoxazine-4-carboxylic acid (2-thiophen-2-yl-ethyl)-amide], the IC50 stood at 4000 nM. Take `O=C1NC(=S)SC1=Cc1ccc2c(c1)N(C(=O)c1cnc3ccccc3n1)CCO2` [Example 43, 5-[4-(Quinoxaline-2-carbonyl)-3,4-dihydro-2H-1,4-benzoxazin-6-ylmethylene]-2-thioxo-thiazolidin-4-one]: the IC50 is 565 nM.

`CC(C(=O)N1CCOc2ccc(C=C3SC(=S)NC3=O)cc21)C(C)(C)C` (centres unmarked) [Example 90, 2-Thioxo-5-[4-(2,3,3-trimethyl-butyryl)-3,4-dihydro-2H-benzo[1,4]oxazin-6-ethylene]-2-thioxo-thiazolidin-4-one]: the IC50 was determined as 1030 nM.

For the compound `CCCCC(=O)N1CCOc2ccc(C=C3SC(=S)NC3=O)cc21` [Example 96, 5-(4-Pentanoyl-3,4-dihydro-2H-1,4-benzoxazin-6-ylmethylene)-2-thioxo-thiazolidin-4-one], the IC50 is 5 nM. As for `N#Cc1ccc(C(=O)N2CCOc3ccc(C=C4SC(=S)NC4=O)cc32)cc1` [Example 28, 4-[6-(4-Oxo-2-thioxo-thiazolidin-5-ylidenemethyl)-2,3-dihydro-1,4-benzoxazine-4-carbonyl]-benzonitrile], the figure is 385 nM; as for `COc1cc(NC(=O)N2CCOc3ccc(C=C4SC(=S)NC4=O)cc32)cc(OC)c1` [Example 67, 6-(4-Oxo-2-thioxo-thiazolidin-5-ylidenemethyl)-2,3-dihydro-1,4-benzoxazine-4-carboxylic acid (3,5-dimethoxy-phenyl)-amide], 39 nM.

For `O=C1NC(=S)SC1=Cc1ccc2c(c1)N(C(=O)c1ccncc1)CCO2` [Example 12], the IC50 was determined as 410 nM. As for `CC1CCCCC1CCC(=O)N1CCOc2ccc(C=C3SC(=S)NC3=O)cc21` (centres unmarked) [Example 87], the figure is 120 nM; as for `O=C1NC(=S)SC1=Cc1ccc2c(c1)N(C(=O)c1ccccn1)CCO2` [Example 54, 5-[4-(Pyridine-2-carbonyl)-3,4-dihydro-2H-1,4-benzoxazin-6-ylmethylene]-2-thioxo-thiazolidin-4-one], 445 nM; as for `CCCCCC(=O)N1CCOc2ccc(C=C3SC(=S)NC3=O)cc21` [Example 95, 5-(4-Hexanoyl-3,4-dihydro-2H-1,4-benzoxazin-6-ylmethylene)-2-thioxo-thiazolidin-4-one], 8 nM.

Consider `O=C1NC(=S)SC1=Cc1ccc2c(c1)N(C(=O)C1CC1)CCO2` [Example 32, 5-(4-Cyclopropanecarbonyl-3,4-dihydro-2H-1,4-benzoxazin-6-ylmethylene)-2-thioxo-thiazolidin-4-one], for which the IC50 came out at 4000 nM. On to `O=C1NC(=S)SC1=Cc1ccc2c(c1)N(C(=O)Oc1cccc3ccccc13)CCCO2` [Example 106, 2-(4-Oxo-2-thioxo-thiazolidin-5-ylidenemethyl)-7,8-dihydro-6H-5-oxa-9-aza-benzocycloheptene-9-carboxylic acid naphthalen-1-yl ester], for which the IC50 worked out at 400 nM. As for `O=C1NC(=S)SC1=Cc1ccc2c(c1)N(C(=O)c1cc(C(F)(F)F)cc(C(F)(F)F)c1)CCO2` [Example 45, 5-[4-(3,5-Bis-trifluoromethyl-benzoyl)-3,4-dihydro-2H-1,4-benzoxazin-6-ylmethylene]-2-thioxo-thiazolidin-4-one], the figure is 760 nM. To “5-(9-Cyclopentanecarbonyl-6,7,8,9-tetrahydro-5-oxa-9-aza-benzocyclohepten-2-ylmethylene)-2-thioxo-thiazolidin-4-one [Example 111]” belongs 1000 nM; to `O=C1NC(=S)SC1=Cc1ccc2c(c1)N(C(=O)Nc1ccc(Oc3ccccc3)cc1)CCO2` [Example 66, 6-(4-Oxo-2-thioxo-thiazolidin-5-ylidenemethyl)-2,3-dihydro-1,4-benzoxazine-4-carboxylic acid (4-phenoxy-phenyl)-amide], 80 nM. Take `O=C1NC(=S)SC1=Cc1ccc2c(c1)N(C(=O)c1cccnc1)CCO2` [Example 13]: the IC50 worked out at 410 nM.

For `O=C1NC(=S)SC1=Cc1ccc2c(c1)N(C(=O)c1ccc3nonc3c1)CCCO2` [Example 116, 5-[9-(Benzofurazan-5-carbonyl)-6,7,8,9-tetrahydro-5-oxa-9-aza-benzocyclohepten-2-ylmethylene]-2-thioxo-thiazolidin-4-one], the 50% inhibitory concentration (IC50) was 1530 nM. In the case of `Cc1cc(C(=O)N2CCOc3ccc(C=C4SC(=S)NC4=O)cc32)no1` [Example 52, 5-[4-(5-Methyl-isoxazole-3-carbonyl)-3,4-dihydro-2H-1,4-benzoxazin-6-ylmethylene]-2-thioxo-thiazolidin-4-one], the IC50 turned out to be 115 nM. To `COC(=O)CCC(=O)N1CCOc2ccc(C=C3SC(=S)NC3=O)cc21` [Example 101, 4-Oxo-4-[6-(4-oxo-2-thioxo-thiazolidin-5-ylidenemethyl)-2,3-dihydro-1,4-benzoxazin-4-yl]-butyric acid methyl ester] belongs 20 nM; to “5-[9-(3-Phenyl-acryloyl)-6,7,8,9-tetrahydro-5-oxa-9-aza-benzocyclohepten-2-ylmethylene]-2-thioxo-thiazolidin-4-one [Example 115]”, 1520 nM; to `Cc1ccc(NC(=O)N2CCOc3ccc(C=C4SC(=S)NC4=O)cc32)cc1` [Example 57, 6-(4-Oxo-2-thioxo-thiazolidin-5-ylidenemethyl)-2,3-dihydro-1,4-benzoxazine-4-carboxylic acid p-tolylamide], 95 nM. As for `CCC(C(=O)N1CCOc2ccc(C=C3SC(=S)NC3=O)cc21)c1ccccc1` (centres unmarked) [Example 30, 5-[4-(2-Phenyl-butyryl)-3,4-dihydro-2H-1,4-benzoxazin-6-ylmethylene]-2-thioxo-thiazolidin-4-one], the IC50 worked out at 735 nM.

For `CC1COc2ccc(C=C3SC(=S)NC3=O)cc2N1C(=O)c1ccccc1` (centres unmarked) [Example 8, 5-[3-Methyl-4-(-phenyl-methanoyl)-3,4-dihydro-2H-benzo[1,4]oxazine-6-ylmethylene]-2-thioxo-thiazolidin-4-one], the IC50 is 2180 nM. Regarding `COc1cccc(NC(=O)N2CCCOc3ccc(C=C4SC(=S)NC4=O)cc32)c1` [Example 122, 2-(4-Oxo-2-thioxo-thiazolidin-5-ylidenemethyl)-7,8-dihydro-6H-5-oxa-9-aza-benzocycloheptene-9-carboxylic acid (3-methoxy-phenyl)-amide], the IC50 stood at 2170 nM.

These data come from patent US20040138199A1, “Benzoxazines and derivatives thereof as therapeutic agents” (priority 2002, published 2004).
